Tests used:
[1] = biological target: T1, recombinant human MER (Homo sapiens, UniProt Q12866); test: Biochemical potency, HTRF KinEASE-TK kinase assay; settings: 1 nM MER, 700 μM ATP
T1 construct: purchased Invitrogen
T1 sequence (Q12866 21-999): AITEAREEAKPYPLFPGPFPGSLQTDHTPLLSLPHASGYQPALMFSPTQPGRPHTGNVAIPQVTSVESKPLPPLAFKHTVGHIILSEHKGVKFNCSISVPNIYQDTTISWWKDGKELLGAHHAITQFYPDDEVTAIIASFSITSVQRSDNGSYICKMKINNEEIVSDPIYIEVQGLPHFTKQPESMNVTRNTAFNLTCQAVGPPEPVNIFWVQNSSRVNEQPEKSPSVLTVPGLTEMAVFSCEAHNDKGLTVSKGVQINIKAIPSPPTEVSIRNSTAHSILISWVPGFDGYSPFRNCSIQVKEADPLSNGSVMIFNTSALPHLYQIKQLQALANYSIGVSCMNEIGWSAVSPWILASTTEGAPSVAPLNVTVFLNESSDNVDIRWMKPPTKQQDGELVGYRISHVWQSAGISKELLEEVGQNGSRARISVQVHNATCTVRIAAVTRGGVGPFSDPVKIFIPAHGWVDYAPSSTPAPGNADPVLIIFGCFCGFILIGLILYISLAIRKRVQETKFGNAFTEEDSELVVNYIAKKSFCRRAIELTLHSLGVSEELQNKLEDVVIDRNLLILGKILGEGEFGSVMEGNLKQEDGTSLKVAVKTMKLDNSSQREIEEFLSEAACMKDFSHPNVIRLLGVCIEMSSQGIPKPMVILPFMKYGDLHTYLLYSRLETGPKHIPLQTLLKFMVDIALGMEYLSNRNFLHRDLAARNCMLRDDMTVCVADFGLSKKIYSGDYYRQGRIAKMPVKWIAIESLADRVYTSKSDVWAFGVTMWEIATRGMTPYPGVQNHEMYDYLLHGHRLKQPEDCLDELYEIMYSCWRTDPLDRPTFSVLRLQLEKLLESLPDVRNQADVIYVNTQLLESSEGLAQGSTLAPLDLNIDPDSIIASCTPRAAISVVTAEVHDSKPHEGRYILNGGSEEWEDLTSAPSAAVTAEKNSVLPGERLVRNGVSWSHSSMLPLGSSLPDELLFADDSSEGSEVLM
In short: (§1)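 Steps: compound plus kinase, 1 h RT; add ATP (700 µM final) and biotin-TK substrate (800 nM final); run 2 h RT; stop into streptavidin-XL665/anti-phospho cryptate detection mix, 1 h; read 665/620. AXL at 5 nM, TYRO3 and MER at 1 nM.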

[2] = biological target: T2, recombinant human TYRO3 (Homo sapiens, UniProt Q06418); test: Biochemical potency, HTRF KinEASE-TK kinase assay; settings: 1 nM TYRO3, 700 μM ATP
T2 construct: purchased Invitrogen
T2 sequence (Q06418 41-890): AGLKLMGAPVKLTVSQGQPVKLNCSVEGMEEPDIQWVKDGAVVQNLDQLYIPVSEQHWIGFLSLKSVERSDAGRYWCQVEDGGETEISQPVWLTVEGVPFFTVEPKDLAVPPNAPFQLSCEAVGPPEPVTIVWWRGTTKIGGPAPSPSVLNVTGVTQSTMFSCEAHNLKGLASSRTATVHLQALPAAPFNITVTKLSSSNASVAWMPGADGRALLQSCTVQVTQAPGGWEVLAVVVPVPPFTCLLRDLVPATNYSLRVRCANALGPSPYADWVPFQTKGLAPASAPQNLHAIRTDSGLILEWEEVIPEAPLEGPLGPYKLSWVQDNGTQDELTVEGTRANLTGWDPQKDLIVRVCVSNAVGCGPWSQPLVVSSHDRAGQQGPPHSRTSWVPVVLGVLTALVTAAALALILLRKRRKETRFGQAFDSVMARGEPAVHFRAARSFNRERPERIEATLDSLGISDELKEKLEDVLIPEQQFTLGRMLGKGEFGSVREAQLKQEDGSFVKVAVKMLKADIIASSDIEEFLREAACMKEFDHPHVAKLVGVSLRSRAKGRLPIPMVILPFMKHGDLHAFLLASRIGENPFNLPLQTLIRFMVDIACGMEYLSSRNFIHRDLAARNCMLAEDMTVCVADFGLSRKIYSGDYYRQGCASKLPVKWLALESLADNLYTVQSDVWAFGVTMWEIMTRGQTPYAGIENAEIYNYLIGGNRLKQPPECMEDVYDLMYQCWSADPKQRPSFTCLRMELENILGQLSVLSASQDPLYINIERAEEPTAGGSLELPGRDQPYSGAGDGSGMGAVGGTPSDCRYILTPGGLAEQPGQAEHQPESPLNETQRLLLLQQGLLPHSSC
In short: as §1

Compound: CC(C)(O)c1cccnc1-c1ccc(-c2n[nH]c3ncc(-c4ccc5c(c4)CC[C@@H](N4C6COCC4C6)CC5)cc23)nc1 [Example 100, 2-(6′-{5-[(7S)-7-{3-Oxa-6-azabicyclo[3.1.1]heptan-6-yl}-6,7,8,9-tetrahydro-5H-benzo[7]annulen-2-yl]-1H-pyrazolo[3,4-b]pyridin-3-yl}-[2,3′-bipyridin]-3-yl)propan-2-ol]
- IC50 [1]: > 1000 nM
- IC50 [2]: 100 to 1000 nM

Compound: Cc1cccnc1-c1ccc(-c2c[nH]c3ncc(-c4ccc5c(c4)CC[C@@](C)(N4CCC[C@H]4C)CC5)cc23)cc1 [Example 172, 3-Methyl-2-(4-{5-[(7S)-7-methyl-7-[(2R)-2-methylpyrrolidin-1-yl]-6,7,8,9-tetrahydro-5H-benzo[7]annulen-2-yl]-1H-pyrrolo[2,3-b]pyridin-3-yl}phenyl)pyridine]
- IC50 [1]: < 100 nM
- IC50 [2]: < 100 nM

Compound: Cc1ccnc(-c2ccc(-c3n[nH]c4ncc(-c5ccc6c(c5)CC[C@@H](N5C7COCC5C7)CC6)cc34)cc2)c1C [Example 118, 6-[(7S)-2-{3-[4-(3,4-Dimethylpyridin-2-yl)phenyl]-1H-pyrazolo[3,4-b]pyridin-5-yl}-6,7,8,9-tetrahydro-5H-benzo[7]annulen-7-yl]-3-oxa-6-azabicyclo[3.1.1]heptane]
- IC50 [1]: 100 to 1000 nM
- IC50 [2]: < 100 nM

Compound: CN(C)C(=O)c1ccccc1-c1ccc(-c2n[nH]c3ncc(-c4ccc5c(c4)CC[C@@H](N4C6COCC4C6)CC5)cc23)cc1 [Example 12, N,N-Dimethyl-4′-{5-[(7S)-7-{3-oxa-6-azabicyclo[3.1.1]heptan-6-yl}-6,7,8,9-tetrahydro-5H-benzo[7]annulen-2-yl]-2H-pyrazolo[3,4-b]pyridin-3-yl}-[1,1′-biphenyl]-2-carboxamide]
- IC50 [1]: 100 to 1000 nM
- IC50 [2]: 100 to 1000 nM

Compound: COC[C@H]1CCN([C@H]2CCc3ccc(-c4cnc5[nH]nc(-c6ccc(-c7ncccc7C)cc6)c5c4)cc3CC2)C1 [Example 132, 2-(4-{5-[(7S)-7-[(3S)-3-(Methoxymethyl)pyrrolidin-1-yl]-6,7,8,9-tetrahydro-5H-benzo[7]annulen-2-yl]-1H-pyrazolo[3,4-b]pyridin-3-yl}phenyl)-3-methylpyridine]
- IC50 [1]: < 100 nM
- IC50 [2]: < 100 nM

Compound: c1cnc(-c2ccc(-c3c[nH]c4ncc(-c5ccc6c(c5)CC[C@@H](N5C7COCC5C7)CC6)cc34)cc2)c(N2CCOCC2)c1 [Example 5, 6-[(7S)-2-(3-{4-[3-(Morpholin-4-yl)pyridin-2-yl]phenyl}-1H-pyrrolo[2,3-b]pyridin-5-yl)-6,7,8,9-tetrahydro-5H-benzo[7]annulen-7-yl]-3-oxa-6-azabicyclo[3.1.1]heptane]
- IC50 [1]: 100 to 1000 nM
- IC50 [2]: < 100 nM

Compound: c1ccc(-c2ccc(-c3c[nH]c4ncc(-c5ccc6c(c5)CC[C@@H](N[C@H]5CCCOC5)CC6)cc34)cc2)nc1 [Example 32, (3S)—N-[(7S)-3-[3-(4-Pyridin-2-ylphenyl)-1H-pyrrolo[2,3-b]pyridin-5-yl]-6,7,8,9-tetrahydro-5H-benzo[7]annulen-7-yl]oxan-3-amine]
- IC50 [1]: 100 to 1000 nM
- IC50 [2]: 100 to 1000 nM

Compound: Cc1ccnnc1-c1ccc(-c2n[nH]c3ncc(-c4ccc5c(c4)CC[C@@H](N4C6COCC4C6)CC5)cc23)cc1 [Example 176, 6-[(7S)-2-{3-[4-(4-Methylpyridazin-3-yl)phenyl]-1H-pyrazolo[3,4-b]pyridin-5-yl}-6,7,8,9-tetrahydro-5H-benzo[7]annulen-7-yl]-3-oxa-6-azabicyclo[3.1.1]heptane]
- IC50 [1]: < 100 nM
- IC50 [2]: < 100 nM

Compound: c1ccc(-c2ccc(-c3n[nH]c4ncc(-c5ccc6c(c5)CC[C@@H](N5C7COCC5C7)CC6)cc34)cc2)nc1 [Example 154, 6-[(7S)-2-{3-[4-(Pyridin-2-yl)phenyl]-2H-pyrazolo[3,4-b]pyridin-5-yl}-6,7,8,9-tetrahydro-5H-benzo[7]annulen-7-yl]-3-oxa-6-azabicyclo[3.1.1]heptane]
- IC50 [1]: 100 to 1000 nM
- IC50 [2]: 100 to 1000 nM

Source: patent publication US12195482B1 (Arcus Biosciences, Inc., priority 2022, dated 2025)
